Laboratory results from ChEMBL document CHEMBL1201862, “PubChem BioAssay data set” (2004).
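Where inhibition never reached the appropriate level, the endpoint shown equals the highest concentration tested. Otherwise, values were interpolated linearly from a five-concentration, 48-hour dose response in 96-well plates. The concentration for 50% growth inhibition is given as GI50.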 Active and inactive are the calls of the source. Cut-off read from the data, not from the text of the source: active = GI50 up to about 1.1 µM and inactive = higher.

Key:
Test in all cases: DTP human tumour cell line panel, 48 h
[1] = test system: 786-0
[2] = test system: A498
[3] = test system: A549
[4] = test system: CAKI-1
[5] = test system: CCRF-CEM
[6] = test system: COLO 205
[7] = test system: DLD-1
[8] = test system: DMS-114
[9] = test system: DMS-273
[10] = test system: EKVX
[11] = test system: HCT-116
[12] = test system: HCT-15
[13] = test system: HL-60
[14] = test system: HOP-18
[15] = test system: HOP-62
[16] = test system: HOP-92
[17] = test system: HT-29
[18] = test system: IGROV-1
[19] = test system: K562
[20] = test system: KM-20L2
[21] = test system: KM12
[22] = test system: LOX IMVI
[23] = test system: LXFL 529
[24] = test system: M14
[25] = test system: M19-MEL
[26] = test system: MOLT-4
[27] = test system: Malme-3M
[28] = test system: NCI-H226
[29] = test system: NCI-H23
[30] = test system: NCI-H460
[31] = test system: NCI-H522
[32] = test system: OVCAR-3
[33] = test system: OVCAR-4
[34] = test system: OVCAR-5
[35] = test system: OVCAR-8
[36] = test system: RPMI-8226
[37] = test system: RXF 393
[38] = test system: SF-268
[39] = test system: SF-295
[40] = test system: SF-539
[41] = test system: SK-MEL-2
[42] = test system: SK-MEL-5
[43] = test system: SK-OV-3
[44] = test system: SN12C
[45] = test system: SNB-19
[46] = test system: SNB-75
[47] = test system: SNB-78
[48] = test system: SR
[49] = test system: SW-620
[50] = test system: TK-10
[51] = test system: U-251
[52] = test system: UACC-257
[53] = test system: UACC-62
[54] = test system: UO-31
[55] = test system: XF498
[56] = test system: ACHN
[57] = test system: HCC 2998
[58] = test system: SK-MEL-28

## O=C1OC2C(O)COC2(O)C1(O)Cc1c[nH]c2ccccc12 (stereo unspecified)
[1]
  GI50: > 100 µM (inactive)
[2]
  GI50: > 100 µM (inactive)
[3]
  GI50: > 100 µM (inactive)
[4]
  GI50: > 100 µM (inactive)
[5]
  GI50: > 100 µM (inactive)
[6]
  GI50: > 100 µM (inactive)
[7]
  GI50: > 100 µM (inactive)
[8]
  GI50: > 100 µM (inactive)
[9]
  GI50: > 100 µM (inactive)
[10]
  GI50: > 100 µM (inactive)
[11]
  GI50: > 100 µM (inactive)
[12]
  GI50: > 100 µM
[13]
  GI50: > 100 µM (inactive)
[14]
  GI50: > 100 µM (inactive)
[15]
  GI50: > 100 µM (inactive)
[16]
  GI50: > 100 µM (inactive)
[17]
  GI50: > 100 µM (inactive)
[18]
  GI50: > 100 µM (inactive)
[19]
  GI50: > 100 µM (inactive)
[20]
  GI50: > 100 µM (inactive)
[21]
  GI50: > 100 µM (inactive)
[22]
  GI50: > 100 µM (inactive)
[23]
  GI50: > 100 µM (inactive)
[24]
  GI50: > 100 µM (inactive)
[25]
  GI50: > 100 µM (inactive)
[26]
  GI50: > 100 µM (inactive)
[27]
  GI50: > 100 µM (inactive)
[28]
  GI50: > 100 µM (inactive)
[29]
  GI50: > 100 µM (inactive)
[30]
  GI50: > 100 µM (inactive)
[31]
  GI50: > 100 µM (inactive)
[32]
  GI50: > 100 µM (inactive)
[33]
  GI50: > 100 µM (inactive)
[34]
  GI50: > 100 µM (inactive)
[35]
  GI50: > 100 µM (inactive)
[36]
  GI50: > 100 µM (inactive)
[37]
  GI50: > 100 µM (inactive)
[38]
  GI50: > 100 µM (inactive)
[39]
  GI50: > 100 µM (inactive)
[40]
  GI50: > 100 µM (inactive)
[41]
  GI50: > 100 µM (inactive)
[42]
  GI50: > 100 µM (inactive)
[43]
  GI50: > 100 µM (inactive)
[44]
  GI50: > 100 µM (inactive)
[45]
  GI50: > 100 µM (inactive)
[46]
  GI50: > 100 µM (inactive)
[47]
  GI50: > 100 µM (inactive)
[48]
  GI50: > 100 µM (inactive)
[49]
  GI50: > 100 µM (inactive)
[50]
  GI50: > 100 µM (inactive)
[51]
  GI50: > 100 µM (inactive)
[52]
  GI50: > 100 µM (inactive)
[53]
  GI50: > 100 µM (inactive)
[54]
  GI50: > 100 µM (inactive)
[55]
  GI50: > 100 µM (inactive)

## CCOC(=O)NC(=O)c1cn(CCN2CCN(C(=O)CNC(=O)CNC(=O)Cn3cc(C(=O)NC(=O)OCC)c(=O)[nH]c3=O)CC2)c(=O)[nH]c1=O
[1]
  GI50: > 100 µM (inactive)
[2]
  GI50: > 100 µM (inactive)
[3]
  GI50: > 100 µM (inactive)
[56]
  GI50: > 100 µM (inactive)
[4]
  GI50: > 100 µM (inactive)
[5]
  GI50: > 100 µM (inactive)
[6]
  GI50: > 100 µM (inactive)
[7]
  GI50: > 100 µM (inactive)
[8]
  GI50: > 100 µM (inactive)
[9]
  GI50: > 100 µM (inactive)
[57]
  GI50: > 100 µM (inactive)
[11]
  GI50: > 100 µM (inactive)
[12]
  GI50: > 100 µM
[13]
  GI50: > 100 µM (inactive)
[14]
  GI50: > 100 µM (inactive)
[15]
  GI50: > 100 µM (inactive)
[16]
  GI50: > 100 µM (inactive)
[17]
  GI50: > 100 µM (inactive)
[19]
  GI50: > 100 µM (inactive)
[20]
  GI50: > 100 µM (inactive)
[21]
  GI50: > 100 µM (inactive)
[22]
  GI50: > 100 µM (inactive)
[23]
  GI50: > 100 µM (inactive)
[24]
  GI50: > 100 µM (inactive)
[25]
  GI50: > 100 µM (inactive)
[26]
  GI50: > 100 µM (inactive)
[27]
  GI50: > 100 µM (inactive)
[29]
  GI50: > 100 µM (inactive)
[30]
  GI50: > 100 µM (inactive)
[31]
  GI50: > 100 µM (inactive)
[32]
  GI50: > 100 µM (inactive)
[34]
  GI50: > 100 µM (inactive)
[35]
  GI50: > 100 µM (inactive)
[38]
  GI50: > 100 µM (inactive)
[39]
  GI50: > 100 µM (inactive)
[40]
  GI50: > 100 µM (inactive)
[58]
  GI50: > 100 µM (inactive)
[41]
  GI50: > 100 µM (inactive)
[43]
  GI50: > 100 µM (inactive)
[44]
  GI50: > 100 µM (inactive)
[45]
  GI50: > 100 µM (inactive)
[46]
  GI50: > 100 µM (inactive)
[47]
  GI50: > 100 µM (inactive)
[48]
  GI50: > 100 µM (inactive)
[49]
  GI50: > 100 µM (inactive)
[50]
  GI50: > 100 µM (inactive)
[51]
  GI50: > 100 µM (inactive)
[52]
  GI50: > 100 µM (inactive)
[53]
  GI50: > 100 µM (inactive)
[54]
  GI50: > 100 µM (inactive)
[55]
  GI50: > 100 µM (inactive)
